Experimental data published in the supplement of paper PMC11616607.

Legend:
Assay in all cases: drug sensitivity score (DSS) from 5-point dose-response viability curve (DSS (area-under-curve based score)); higher = more sensitive (stronger growth inhibition or killing); extreme values may be limits of the assay
Conditions in all cases: exposure time: 72 h; concentration range: 5 concentrations over 10,000-fold range
HOSE2C = system: HOSE2C
Outline: (§1)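 Drugs in DMSO or water were acoustically dispensed (Echo 550) into 384-well plates at five concentrations across a 10,000-fold range. Ovarian cancer and normal ovarian cells (1,500 per well) were then added, incubated for 3 days at 37°C with 5% CO2, and read for viability by CellTiter-Glo luminescence on a PHERAstar FS. From these readings, Breeze software derived a drug sensitivity score per cell line and drug, with higher values meaning more sensitive and zero meaning no response.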

JHOS2 = system: JHOS2
Outline: as §1

OVCAR8 = system: OVCAR8
Outline: as §1

CAOV3 = system: CAOV3
Outline: as §1

Ovsaho = system: Ovsaho
Outline: as §1

OV90 = system: OV90
Outline: as §1

Kuramochi = system: Kuramochi
Outline: as §1

OVCAR5 = system: OVCAR5
Outline: as §1

HOSE1C = system: HOSE1C
Outline: as §1

COV362 = system: COV362
Outline: as §1

COV318 = system: COV318
Outline: as §1

OVCAR4 = system: OVCAR4
Outline: as §1

Structure (SMILES) | drug sensitivity score (HOSE2C) | drug sensitivity score (JHOS2) | drug sensitivity score (OVCAR8) | drug sensitivity score (CAOV3) | drug sensitivity score (Ovsaho) | drug sensitivity score (OV90) | drug sensitivity score (Kuramochi) | drug sensitivity score (OVCAR5) | drug sensitivity score (HOSE1C) | drug sensitivity score (COV362) | drug sensitivity score (COV318) | drug sensitivity score (OVCAR4)
CC(C)(C)C[C@@H]1N[C@@H](C(=O)N[C@H]2CC[C@H](O)CC2)[C@H](c2cccc(Cl)c2F)[C@]12C(=O)Nc1cc(Cl)ccc12 | 16.9 | 0 | 0.4 | 0 | 1.4 | 2.1 | 1.5 | 0.4 | 14.7 | 1.2 | 0.3 | 0.1
CCOc1ccn(-c2ccc(F)cc2)c(=O)c1C(=O)Nc1ccc(Oc2ccnc(N)c2Cl)c(F)c1 | 0 | 0 | 0 | 0 | 0 | 0 | 0 | 0 | 0 | 0 | 0 | 0
CC[C@@H]1[C@H](F)C(=O)N[C@@H]1COc1nccc2cc(C(N)=O)c(OC)cc12 | 0 | 1.3 | 0.7 | 0.9 | 2.3 | 0.6 | 1.8 | 0.6 | 0 | 0 | 0 | 0.4
CCc1cncnc1N1CCN(Cc2nc3ccc(C(F)(F)F)cc3[nH]2)CC1 | 0 | 0.8 | 3.1 | 0.9 | 1.2 | 2.9 | 1.1 | 2.8 | 0 | 0 | 1.1 | 2.3
CCn1c(C(=O)N(C2CC2)C2CC2)cc2c3c(ncn3C)c(Nc3cc(C)n(C)n3)nc21 | 0 | 0 | 0 | 0 | 0 | 0.5 | 2.6 | 0 | 0 | 0.2 | 0.4 | 0.3
CN(C)CC#Cc1ccc(OCCCc2sc(N3CCc4cccc(C(=O)Nc5nc6ccccc6s5)c4C3)nc2C(=O)O)c(F)c1 | 6.2 | 1.2 | 0 | 7.5 | 10.4 | 19.2 | 1.6 | 4.1 | 22.7 | 1.6 | 1.3 | 3.5
CNC(=O)c1ccc(C)c(-n2c(C)cc(OCc3ccc(F)cc3F)c(Br)c2=O)c1 | 0 | 0 | 0 | 0 | 0 | 0 | 0.7 | 0.6 | 0 | 0 | 0 | 0
CNS(=O)(=O)Nc1nccc(Cc2c(C)c3ccc(Oc4ncccn4)cc3oc2=O)c1F | 0 | 0 | 0 | 3.3 | 0.3 | 6.3 | 0 | 0 | 0 | 0 | 0 | 1.7
C[C@@]1(C(=O)Nc2ccc(F)nc2)CCCN1c1nc(Nc2cc(C3CC3)n[nH]2)c2cccn2n1 | 18.7 | 3.3 | 5.2 | 20.2 | 7.5 | 7.4 | 4.8 | 14.4 | 8.9 | 6.5 | 3.1 | 7.2
C[C@H]1C[C@@H](n2c(Nc3ccc(OC(F)(F)F)cc3)nc3cc(CCC(=O)O)ccc32)CC(C)(C)C1 | 0 | 0 | 0.1 | 0 | 0 | 0 | 0 | 0 | 0 | 0 | 0 | 0
Cc1c(-c2c(-c3ccc(F)o3)sc3ncnc(O[C@H](Cc4ccccc4OCc4ccnn4CC(F)(F)F)C(=O)O)c23)ccc(OCCN2CCN(C)CC2)c1Cl | 0 | 0 | 0 | 0 | 0 | 0.1 | 0 | 0.1 | 0 | 0.4 | 0.2 | 0.6
Cc1c(-c2ccc(N3CCc4cccc(C(=O)Nc5nc6ccccc6s5)c4C3)nc2C(=O)O)cnn1CC12CC3CC(CC(C3)C1)C2 | 5.8 | 0 | 0.8 | 5.1 | 2.5 | 7.6 | 0 | 1 | 20.6 | 0 | 0 | 2.1
Cc1ccc(C(=O)N(CCCN)[C@@H](c2oc3cc(Cl)ccc3c(=O)c2Cc2ccccc2)C(C)C)cc1 | 9.2 | 4.8 | 2.9 | 5.8 | 4.1 | 6.4 | 2.9 | 4.5 | 15.8 | 0.4 | 1 | 3.4
Cc1nc(Nc2n[nH]c3c2CN(C(=O)N[C@H](CN(C)C)c2ccccc2)C3(C)C)c2sccc2n1 | 7.5 | 10.6 | 16.5 | 17.5 | 9 | 17 | 12.2 | 14.9 | 20.6 | 7.3 | 7.2 | 10.2
Cc1nn(C)c(COc2ccc(N3CCN(S(=O)(=O)N(C)C)CC3)cc2)c1-c1cccc2c(CCCOc3cccc4ccccc34)c(C(=O)O)n(CCN3CCOCC3)c12 | 13.7 | 6.3 | 7.4 | 4.9 | 8.6 | 5.7 | 7.8 | 5.2 | 13.7 | 2.8 | 5.4 | 5.1
N#Cc1ccc(COC[C@H]2O[C@@H](n3c(NCc4ccc(Cl)c(Cl)c4)nc4c(N)ncnc43)[C@H](O)[C@@H]2O)cc1 | 5.6 | 1 | 5.5 | 3.8 | 4.5 | 3.8 | 1.4 | 4.4 | 2.7 | 0.5 | 0.1 | 0.3

Structure (SMILES) | drug sensitivity score (HOSE2C) | drug sensitivity score (JHOS2) | drug sensitivity score (OVCAR8) | drug sensitivity score (CAOV3) | drug sensitivity score (Ovsaho) | drug sensitivity score (OV90) | drug sensitivity score (Kuramochi) | drug sensitivity score (OVCAR5) | drug sensitivity score (HOSE1C) | drug sensitivity score (COV362) | drug sensitivity score (COV318) | drug sensitivity score (OVCAR4)
NC[C@@](O)(c1ccc(Cl)cc1)c1ccc(-c2cn[nH]c2)cc1 | 6.1 | 2.8 | 1.1 | 0.5 | 0 | 0 | 0.1 | 0.7 | 8.6 | 0 | 3.3 | 1.1
Nc1nccc(-c2c(-c3ccc(F)cc3)ncn2C2CCCCC2)n1 | 0.9 | 0 | 0.7 | 1.7 | 0 | 0 | 0.1 | 1.9 | 1.6 | 0 | 0 | 0
Nc1ncnc2c1c(COc1cccc(Cl)c1)nn2C1CCOCC1 | 0 | 0 | 0 | 0 | 0 | 0 | 0.3 | 0.6 | 0 | 0 | 0 | 0
O=C(Nc1ccc2[nH]nc(-c3ccncc3)c2c1)[C@@H]1CCN(CC(=O)N2CCN(c3ccc(-c4ncccn4)cc3)CC2)C1 | 1.1 | 8.4 | 6.7 | 12.2 | 14.1 | 23.5 | 13.2 | 13.4 | 0.2 | 4.9 | 0 | 1.7
O=c1[nH]c(C2CCCN2)nc2c1oc1ccc(Cl)cc12 (configuration not stated) | 0.9 | 0 | 0 | 3.5 | 0 | 0.2 | 0 | 4 | 2.6 | 0 | 0 | 0
COc1ccc(C[C@H](NC(=O)[C@H](C)NC(=O)CN2CCOCC2)C(=O)N[C@@H](Cc2ccccc2)C(=O)C2(C)CO2)cc1 (stereo in doubt) [ONX-0914] | 21.3 | 16.1 | 17.7 | 17.9 | 19.6 | 19.8 | 11.6 | 18.2 | 27.9 | 17.9 | 12.3 | 17.1
CC/C(=C(\c1ccc(O)cc1)c1ccc(OCCN(C)C)cc1)c1ccccc1 [4-hydroxytamoxifen] | 3 | 2.8 | 2.6 | 0.2 | 3.9 | 6 | 4.2 | 5.9 | 2.7 | 2 | 5.5 | 2.1
Nc1ncnc2c1nc(N)n2[C@@H]1O[C@H](CO)[C@@H](O)[C@H]1O [8-amino-adenosine] | 4.9 | 28.2 | 20.5 | 22.6 | 26 | 20.1 | 24.5 | 23.5 | 4.1 | 20.4 | 15.1 | 19
Nc1ncnc2c1nc(Cl)n2[C@@H]1O[C@H](CO)[C@@H](O)[C@H]1O [8-chloro-adenosine] | 3.5 | 9.4 | 13.2 | 11.2 | 18.5 | 3.7 | 5.1 | 11.9 | 0.5 | 7.6 | 3.7 | 8
COc1cc2c(cc1OCCCN1CCCC1)N=C(N)C21CCC1 [A-366] | 0 | 0 | 1 | 0.3 | 0.3 | 5.7 | 1.2 | 0.4 | 0.8 | 1.2 | 0 | 0.1
COc1ccc(S(=O)(=O)Nc2cccnc2Nc2ccc(O)cc2)cc1 [ABT-751] | 10.7 | 7.1 | 11.5 | 14.9 | 7 | 9.4 | 7.4 | 10.3 | 15.8 | 4.3 | 7.2 | 5
C[C@H](Nc1ncnc2[nH]cnc12)c1cc2ccc(F)cc2nc1-c1ccccn1 [AMG319] | 0 | 0 | 0 | 0 | 1.2 | 0 | 1.1 | 0 | 0 | 0 | 0.1 | 0.7
COCCOc1cnc2ccn([C@H](C)c3nnc4c(F)cc(-c5cnn(C)c5)cn34)c(=O)c2c1 [AMG-337] | 0 | 0 | 0 | 0 | 0 | 0 | 0 | 0 | 0 | 0 | 0 | 0
CC1CCC(n2c3cnccc3c3cnc(Nc4ccc5c(n4)CCN(C(=O)CO)C5)nc32)CC1 (configuration not stated) [AMG-925] | 0 | 0.5 | 0 | 0 | 0.1 | 0 | 0.1 | 2.5 | 0 | 0 | 0 | 0
CC(C)[C@H](C(=O)Nc1ccc(C(=O)NO)cc1)c1ccccc1 [AR-42] | 16.9 | 7.8 | 16.8 | 9.9 | 9 | 12.8 | 9.5 | 16.5 | 21.1 | 2.9 | 7.5 | 7.2
